Reference: the supplement of paper PMC10331698
± gives the standard deviation of the averaged measurements.

Key:
Assay in all cases: level (log10 ratio to DMSO vehicle control); higher = higher biomarker level / cell amount than vehicle control
[1] = compound: C[C@@H]1C[C@H]2[C@@H]3CCC4=CC(=O)C=C[C@]4(C)[C@@]3(F)[C@@H](O)C[C@]2(C)[C@@]1(O)C(=O)COP(=O)(O)O [Dexamethasone sodium phosphate] (in DMSO)
Method: (§1)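 BioMAP Diversity Plus panel of 12 human primary cell co-culture systems (3C, 4H, LPS, SAg, BT, BF4T, BE3C, CASM3C, HDF3CGF, KF3CT, MyoF, Mphg). Compounds were added 1 h before stimulation and left for 24 h (MyoF 48 h; BT 72 h for soluble read-outs or 6 d for IgG). Biomarkers were read by ELISA, cytotoxicity by SRB, PBMC viability and proliferation by Alamar Blue. Each well value was divided by the mean of 8 DMSO control wells on the same plate and log10 transformed; duplicate blinded samples were tested at 4 concentrations.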

[2] = compound: O=C(O)C(F)(F)C(F)(F)C(F)(F)OC(F)(F)F [Perfluoro(4-methoxybutanoic) acid] (in DMSO)
Method: as §1

[3] = compound: O=C(O)C(F)(OC(F)(F)C(F)(OC(F)(F)C(F)(OC(F)(F)C(F)(F)C(F)(F)F)C(F)(F)F)C(F)(F)F)C(F)(F)F [Perfluoro-(2,5,8-trimethyl-3,6,9-trioxadodecanoic)acid] (in DMSO)
Method: as §1

[4] = compound: OCC(F)(F)C(F)(F)C(F)(F)C(F)F [1H,1H,5H-Perfluoropentanol] (in DMSO)
Method: as §1

[5] = compound: O=S(=O)(O)C(F)(F)C(F)(F)OC(F)(F)C(F)(F)F [Perfluoro(2-ethoxyethane)sulfonic acid] (in DMSO)
Method: as §1

[6] = compound: CO[Si](C)(CCC(F)(F)C(F)(F)C(F)(F)C(F)(F)C(F)(F)C(F)(F)F)OC [Dimethoxymethyl((perfluorohexyl)ethyl)silane] (in DMSO)
Method: as §1

Test System	level (log10) ([1]; 1500 nM)	level (log10) ([1]; 4400 nM)	level (log10) ([1]; 13000 nM)	level (log10) ([1]; 40000 nM)	level (log10) ([2]; 6700 nM)	level (log10) ([2]; 20000 nM)	level (log10) ([2]; 60000 nM)	level (log10) ([3]; 1100 nM)	level (log10) ([3]; 3300 nM)	level (log10) ([3]; 10000 nM)	level (log10) ([4]; 6700 nM)	level (log10) ([4]; 20000 nM)	level (log10) ([4]; 60000 nM)	level (log10) ([5]; 6700 nM)	level (log10) ([5]; 20000 nM)	level (log10) ([5]; 60000 nM)	level (log10) ([6]; 6700 nM)	level (log10) ([6]; 20000 nM)
SAg:CD38	-0.014 ± 0.018	-0.027 ± 0.021	-0.037 ± 0.0028	-0.0215 ± 0.023	-0.0375 ± 0.016	-0.0225 ± 0.005	-0.0195 ± 0.0035	-0.0115 ± 0.0021	-0.011 ± 0.021	-0.005 ± 0.014	0.0465 ± 0.018	0.0415 ± 0.022	0.0305 ± 0.049	-0.0005 ± 0.03	-0.004 ± 0.023	-0.0125 ± 0.016	0.0075 ± 0.018	0.014 ± 0.0028
SAg:CXCL9/MIG	0.0095 ± 0.00071	-0.0065 ± 0.0035	-0.0125 ± 0.0035	-0.005 ± 0.0099	-0.0025 ± 0.00071	-0.0005 ± 0.0092	0.011 ± 0.0028	-0.01 ± 0.017	0.008 ± 0.017	-0.0005 ± 0.016	-0.0105 ± 0.00071	0.0005 ± 0.013	0.008 ± 0.023	0.007	-0.0025 ± 0.0078	0.0035 ± 0.005	0.0075 ± 0.0021	-0.0035 ± 0.0035
LPS:M-CSF	-0.0225 ± 0.016	-0.0445 ± 0.039	-0.0265 ± 0.0078	-0.0515 ± 0.012	-0.014 ± 0.014	-0.024	-0.008 ± 0.011	-0.005 ± 0.02	0.0145 ± 0.035	0.022 ± 0.023	-0.01 ± 0.0014	-0.0015 ± 0.029	0.0125 ± 0.049	-0.0095 ± 0.059	0.026 ± 0.028	-0.0085 ± 0.032	-0.022 ± 0.017	0.025 ± 0.041
BE3C:CD54/ICAM-1	-0.0035 ± 0.033	-0.0265 ± 0.005	-0.0205 ± 0.0021	-0.0105 ± 0.021	-0.0015 ± 0.013	-0.007 ± 0.0085	-0.007 ± 0.017	0.0115 ± 0.037	0.0145 ± 0.033	0.0295 ± 0.033	0.0095 ± 0.042	0.02 ± 0.0014	0.0175 ± 0.028	0.001 ± 0.011	-0.0115 ± 0.0092	-0.022 ± 0.017	0 ± 0.0085	0 ± 0.0042
4H:VEGFR2	0.025 ± 0.0057	-0.0665 ± 0.057	-0.0115 ± 0.069	-0.004 ± 0.059	0.009 ± 0.033	0.019 ± 0.038	0.0075 ± 0.011	-0.002 ± 0.014	-0.0135 ± 0.005	0.001 ± 0.0071	-0.021 ± 0.028	-0.0215 ± 0.0021	0.0395 ± 0.073	0.009 ± 0.086	0.028 ± 0.057	0.0365 ± 0.12	-0.023	-0.001 ± 0.027
4H:CD62P/P-selectin	-0.0355 ± 0.037	-0.038 ± 0.0042	-0.022 ± 0.011	-0.033 ± 0.047	0.0035 ± 0.0078	0.033 ± 0.068	-0.005 ± 0.059	-0.002 ± 0.069	0.0295 ± 0.0064	-0.0445 ± 0.026	-0.0245 ± 0.0021	0.0205 ± 0.061	0.027 ± 0.038	-0.02 ± 0.014	0.0445 ± 0.005	-0.0105 ± 0.015	-0.0095 ± 0.033	-0.0135 ± 0.036
SAg:CD62E/E-Selectin	-0.0615 ± 0.0021	-0.124 ± 0.015	-0.168 ± 0.059	-0.168 ± 0.03	-0.01 ± 0.0028	-0.0145 ± 0.037	-0.0125 ± 0.037	-0.02 ± 0.0014	-0.031 ± 0.02	0.008 ± 0.042	-0.011 ± 0.018	0.008 ± 0.0071	0.0325 ± 0.035	0.0015 ± 0.0021	0.001 ± 0.0071	0.033 ± 0.018	-0.0185 ± 0.019	0.0235 ± 0.0035
LPS:CD62E/E-Selectin	0 ± 0.0014	-0.015 ± 0.0014	-0.0105 ± 0.00071	-0.0115 ± 0.005	-0.009 ± 0.0099	-0.007 ± 0.014	-0.002	-0.002 ± 0.0099	-0.0115 ± 0.005	-0.0135 ± 0.0035	-0.0165 ± 0.00071	0.0125 ± 0.0064	0.0055 ± 0.022	0.0105 ± 0.022	0.0215 ± 0.019	0.0275 ± 0.0078	0.0135 ± 0.011	0.01 ± 0.0099
BE3C:IL-1alpha	-0.025 ± 0.0028	-0.054 ± 0.0028	-0.0395 ± 0.0092	-0.0225 ± 0.036	-0.0045 ± 0.037	0.014 ± 0.0042	0.0245 ± 0.0021	-0.019 ± 0.0028	-0.0175 ± 0.035	0.004 ± 0.018	-0.0275 ± 0.0064	-0.0155 ± 0.018	0.0035 ± 0.023	0.0015 ± 0.0021	0.0045 ± 0.0035	0.0085 ± 0.005	0.0025 ± 0.018	0.021 ± 0.0071
BF4T:CCL26/Eotaxin-3	-0.0755 ± 0.043	-0.134 ± 0.086	-0.115 ± 0.012	-0.122 ± 0.03	0.0195 ± 0.06	0.0005 ± 0.0035	0.0065 ± 0.0021	-0.026 ± 0.018	0.009 ± 0.025	0.034 ± 0.021	0.0125 ± 0.059	0.0235 ± 0.005	0.049 ± 0.044	0.019 ± 0.0014	-0.0075 ± 0.00071	0.039 ± 0.038	0.0285 ± 0.011	-0.0075 ± 0.0092
BF4T:MMP-3	0.0565 ± 0.083	0.006 ± 0.061	-0.03 ± 0.05	0.0185 ± 0.033	0.0015 ± 0.012	-0.008 ± 0.014	0.0155 ± 0.0078	-0.01 ± 0.0014	-0.01 ± 0.014	0.015 ± 0.017	-0.0125 ± 0.0064	-0.007 ± 0.0099	0.002 ± 0.021	0.0015 ± 0.0064	0.0105 ± 0.023	0.0805 ± 0.067	0.0005 ± 0.0035	-0.015 ± 0.0099
LPS:CCL2/MCP-1	0.023 ± 0.011	-0.0045 ± 0.012	-0.013 ± 0.0071	-0.0105 ± 0.088	0.004 ± 0.013	-0.001 ± 0.024	0.025 ± 0.058	-0.0105 ± 0.022	-0.014 ± 0.0042	-0.002 ± 0.0099	-0.006 ± 0.0071	0.004 ± 0.014	0.007 ± 0.04	0.012 ± 0.0057	0.021 ± 0.0071	0.032 ± 0.035	-0.0155 ± 0.028	0.013 ± 0.048
3C:HLA-DR	-0.0025 ± 0.012	-0.0065 ± 0.022	0.0035 ± 0.0035	0.0135 ± 0.0035	0.0105 ± 0.013	0.0055 ± 0.023	0.0015 ± 0.016	-0.0045 ± 0.0078	-0.002 ± 0.0057	0.0115 ± 0.013	-0.02 ± 0.0028	-0.0075 ± 0.025	0.0385 ± 0.023	-0.005	-0.0045 ± 0.005	0.008 ± 0.0099	0.013 ± 0.014	0.029 ± 0.013
BT:Secreted IgG	0.024 ± 0.0085	0.002	0.034 ± 0.011	0.0025 ± 0.036	-0.0045 ± 0.03	0.026 ± 0.047	-0.0125 ± 0.0064	0.0215 ± 0.049	0.0315 ± 0.013	0.0065 ± 0.021	0.044 ± 0.02	0.0295 ± 0.039	0.0475 ± 0.028	0.0355 ± 0.0035	-0.0135 ± 0.084	-0.0095 ± 0.086	0.0505 ± 0.0078	0.021 ± 0.018
